According to patent US12109204B2, “Methods for treating muscular dystrophies” (The Regents of the University of California, priority 2018, dated 2024):
Entries after “also recorded” stand apart in the source; their conditions may differ.

Experiments:
Format in all cases: cell-based, murine
[1] = tested on: hSSPN-EGFP myotubes (human sarcospan promoter reporter in C2C12); assay: hSSPN-EGFP reporter myotube assay (high-content imaging); settings: for hit call in an earlier assay: no details given; for hSSPN-EGFP reporter activity, counterscreen: doses between 3.9 nm to 1 μM, 48 hours (FIG. 10a)
[2] = tested on: hSSPN-EGFP myotubes (human sarcospan promoter reporter in C2C12); assay: as above; settings: for hSSPN-EGFP RFU, Plate 1 / hSSPN-EGFP RFU, Plate 2: retest of screen hits at 5.5 μM; for hSSPN-EGFP RFU, Plate 1: Plate 1, n=24 per plate; for hSSPN-EGFP RFU, Plate 2: Plate 2, n=24 per plate; for fluorescence intensity over vehicle, primary screen hit call: primary screen of 3,200 molecules, 5.5 μM, 48 hours, n=1, hit cutoff 1.4-fold
Experimental: (§1) C2C12 immortalized murine myoblasts cultured in growth media consisting of DMEM (Gibco) with 20% Fetal Bovine Serum (Sigma-Aldrich) at 37° C. with 5% CO2 were transfected with the hSSPN-EGFP or hSSPN-Luciferase linearized plasmids using Lipofectamine 3000 Transfection Reagent (Thermo Fisher Scientific). Transfected cells were selected using 800 μg/ml of G418 (Sigma-Aldrich) for 4 weeks to generate stable cell lines expressing reporter protein under control of the human SSPN promoter.
hSSPN-EGFP myoblasts were seeded at 500 cells per well in 50 μl of growth media in 384-well black, clear bottom microplates (Greiner) using a Multidrop 384 (Thermo Fisher Scientific) and incubated for 3 days. Upon reaching confluency, the growth media was replaced with 50 μl of differentiation media consisting of DMEM with 2% horse serum (Sigma-Aldrich) using an EL406 combination washer dispenser (Biotek). At day 2 of differentiation, the media on the cells was aspirated, left with a residual volume of 10 μl, and replaced with 30 μl of fresh differentiation media. 0.5 μl of small molecule in DMSO or DMSO alone (for vehicle and positive control wells) was added to each well using a Biomek Fx (Beckman). To ensure proper mixing of the DMSO, 50 μl of additional differentiation media was added to all wells except the positive control treated wells, which instead received 50 μl of media containing insulin transferrin selenium (ITS, Gibco) to reach a final concentration of 1% ITS. The final concentration of drug in each treated well was 5.5 μM in 0.55% DMSO and 0.55% DMSO for vehicle and positive control treated wells. After 48 hours of incubation, the media was replaced with Fluorobrite DMEM (Gibco) and each plate was imaged using ImageXpress Micro Confocal High Content Imaging System (Molecular Devices). The fluorescent intensity of imaged cells was determined using MetaXpress Analysis software (Molecular Devices). Analysis setting were as follows: top hat (size: 12, filter shape: circle), adaptive threshold (source: top hat, minimum width: 10, maximum width: 800, intensity above local background: 500), filter mask (filter type: minimum area filter, minimum value: 500). […]

[3] = tested on: hSSPN-Luciferase reporter cells (human sarcospan promoter reporter in C2C12); assay: hSSPN-Luciferase reporter assay (Bright-Glo); settings: doses between 3.9 nm to 1 μM, 48 hours (FIG. 10b)
Experimental: as §1
hSSPN-Luciferase myoblasts were cultured as described above. After 48 hours of treatment, plates were allowed to equilibrate to room temperature before the media was aspirated using an EL406 combination washer dispenser at room temperature. Bright-Glo luciferase assay system reagent (Promega) and differentiation media were added to cells at a 1:2 dilution using a Multidrop 384. After a 3-minute incubation at room temperature, luminescence signal was quantified using an Envision plate reader (PerkinElmer). The relative luminescence units were analyzed to determine fold change of treated over vehicle treated cells.
Cells were treated for 48 hours beginning at day 2 of differentiation with DMSO (vehicle control, ATCC), felodipine (Sigma), nilvadipine (Sigma), alloxazine (Sigma), GW5074 (Sigma), methylthioadenosine (Santa Cruz Biotechnology), or ezutromid (Cayman Chemicals) diluted in cell type specific differentiation media at doses listed in the figures. For gene expression studies, each treatment was performed in duplicate. For protein studies, each treatment was performed with single or double replicates.

SSPN, sarcospan = assay: SSPN gene expression by qPCR in C2C12 wild-type myotubes; settings: 48h, normalized to GAPDH, n=2 (FIG. 11b), felodipine 10 μM
Experimental: (§2) RNA from myotubes treated for 48 hours was extracted from cells using Trizol-based (Thermo Fisher Scientific) phase separation. RNA concentrations were determined using a NanoDrop 1000 (Thermo Fisher Scientific) and 750 ng of RNA in a 20 μl reaction was reverse transcribed using iScript cDNA synthesis (Bio-Rad) with the following cycling conditions: 25° C. for 5 minutes, 42° C. for 30 minutes, 85° C. for 5 minutes. For quantitative PCR, SsoFast EvaGreen Supermix (Bio-Rad), 400 nM of each optimized forward and reverse primer (for primer descriptions see Table 1), and cDNA corresponding to 37.5 ng RNA were used to amplify cDNA measured by Applied Biosystems 7300 (Thermo Fisher Scientific) with the following reaction conditions: 55° C. for 2 minutes, 95° C. for 2 minutes, 40 cycles of 95° C. for 10 seconds and 62° C. for 30 seconds, and dissociation stage. Each sample was run in triplicate. Data was analyzed using the ddCT method and normalized to reference gene, GAPDH or β-actin, with vehicle-treated samples serving as the calibrator (relative expression of vehicle control=1). C2C12 cells (American Type Culture Collection) were grown at 37° C. with 5% CO2 in growth media containing DMEM (Gibco) with 20% FBS (Sigma-Aldrich). Upon reaching confluency, the media was replaced with differentiation media containing DMEM with 2% horse serum (Sigma-Aldrich). Conditionally immortalized H2K mdx myoblast cells with a nonsense mutation in exon 23 of dystrophin were a gift from Terrance Partridge, Ph.D. (Children's National Medical Center, Washington, D.C.). Cells were allowed to proliferate on 0.01% gelatin (Sigma-Aldrich) coated plates at 33° C. with 5% CO2 with growth media containing DMEM, 20% HI-FBS (Invitrogen), 2% L-glutamine (Sigma-Aldrich), 2% chicken embryo extract (Accurate Chemical), 1% penicillin-streptomycin (Sigma-Aldrich), and 20U/ml of fresh interferon gamma (Gibco). For differentiation, H2K mdx myoblasts were seeded on plates coated with 0.1 mg/ml matrigel (Corning) diluted in DMEM and grown in proliferation conditions. […]

UTRN, utrophin = assay: UTRN gene expression by qPCR in C2C12 wild-type myotubes; settings: C2C12 myotubes, 48h, normalized to GAPDH, n=2 (FIG. 11a); felodipine 10 μM
Experimental: as §2, with “(Sigma-Aldrich).” for “(Sigma-Aldrich). Conditionally immortalized H2K mdx myoblast cells with a nonsense mutation in exon 23 of dystrophin were a gift from Terrance Partridge, Ph.D. (Children's National Medical Center, Washington, D.C.). Cells were allowed to proliferate on 0.01% gelatin (Sigma-Aldrich) coated plates at 33° C. with 5% CO2 with growth media containing DMEM, 20% HI-FBS (Invitrogen), 2% L-glutamine (Sigma-Aldrich), 2% chicken embryo extract (Accurate Chemical), 1% penicillin-streptomycin (Sigma-Aldrich), and 20U/ml of fresh interferon gamma (Gibco). For differentiation, H2K mdx myoblasts were seeded on plates coated with 0.1 mg/ml matrigel (Corning) diluted in DMEM and grown in proliferation conditions.”

Structure (SMILES) | hit call in an earlier assay [1] | hSSPN-EGFP RFU, Plate 1 [2] [RFU] | hSSPN-EGFP RFU, Plate 2 [2] [RFU] | hSSPN-EGFP reporter activity, counterscreen [1] | hSSPN-Luciferase reporter activity, counterscreen [3] | fluorescence intensity over vehicle, primary screen hit call [2] | SSPN gene expression relative to vehicle (SSPN, sarcospan) | UTRN gene expression relative to vehicle (UTRN, utrophin)
CC[n+]1c(C=CC=C2N(C)c3ccccc3C2(C)C)sc2ccccc21.[I-] [AC-93253, 2-[3-(1,3-Dihydro-1,3,3-trimethyl-2H-indol-2-ylidene)-1-propenyl]-3-ethyl-benzothiazolium iodide] | among the hits |  |  |  |  |  |  | 
CC(=O)OC1CN2CCC1CC2 (centres unmarked) [Aceclidine, 1-Azabicyclo[2.2.2]oct-3-yl acetate] |  | 1.1 | 1.1 |  |  |  |  | 
Nc1nc(=O)c2ncn(COCCO)c2[nH]1 [Acyclovir, 2-amino-9-(2-hydroxyethoxymethyl)-3H-purin-6-one] |  | 0.9 | 1.0 |  |  |  |  | 
O=c1[nH]c(=O)c2nc3ccccc3nc2[nH]1 [Alloxazine, 1H-benzo[g]pteridine-2,4-dione] |  | 1.0 | 1.1 | increased activity | increased activity | hits |  | 
COC(=O)N=N/C=C1\C=[N+]([O-])c2ccccc2N1O [Carbodox, methyl N-[(E)-(1-hydroxy-4-oxidoquinoxalin-4-ium-2-ylidene)methyl]iminocarbamate] |  | 1.1 | 1.1 |  |  |  |  | 
O=C1Nc2ccc(I)cc2/C1=C/c1cc(Br)c(O)c(Br)c1 [GW5074, (3Z)-3-[(3,5-dibromo-4-hydroxyphenyl)methylidene]-5-iodo-1H-indol-2-one] |  | 1.2 | 1.2 | increased activity | increased activity | hits |  | 
CC(C)NCC(O)c1ccc(O)c(O)c1 (centres unmarked) [Isoproterenol, 4-[1-hydroxy-2-(propan-2-ylamino)ethyl]benzene-1,2-diol] |  | 1.1 | 1.1 |  |  | hits |  | 
COC(=O)C1=C(C)NC(C)=C(C(=O)OC(C)C)C1c1cccc2nonc12 (centres unmarked) [Isradipine, 3-O-methyl 5-O-propan-2-yl 4-(2,1,3-benzoxadiazol-4-yl)-2,6-dimethyl-1,4-dihydropyridine-3,5-dicarboxylate] |  | 1.5 | 1.4 |  |  | hits |  | 
CCOC(=O)C1=C(C)NC(C)=C(C(=O)OCC)C1c1ccccc1/C=C/C(=O)OC(C)(C)C [Lacidipine, diethyl 2,6-dimethyl-4-[2-[(E)-3-[(2-methylpropan-2-yl)oxy]-3-oxoprop-1-enyl]phenyl]-1,4-dihydropyridine-3,5-dicarboxylate] |  | 1.3 | 1.2 |  |  | hits |  | 
CCCCN1CCCC1CNC(=O)c1cc(C#N)c2ccccc2c1OC (centres unmarked) [Nafadotride, N-[(1-butylpyrrolidin-2-yl)methyl]-4-cyano-1-methoxynaphthalene-2-carboxamide] |  | 1.1 | 1.0 |  |  |  |  | 
C[C@]12CC[C@H]3[C@@H](CCC4=CC(=O)CC[C@@H]43)[C@@H]1CC[C@@H]2O [Nandrolone, (8R,9S,10R,13 S,14S,17S)-17-hydroxy-13-methyl-2,6,7,8,9,10,11,12,14,15,16,17-dodecahydro-1H-cyclopenta[a]phenanthren-3-one] |  | 1.2 | 1.1 |  |  | hits |  | 
COC(=O)C1=C(C)NC(C)=C(C(=O)OC)C1c1ccccc1[N+](=O)[O-] [Nifedipine, dimethyl 2,6-dimethyl-4-(2-nitrophenyl)-1,4-dihydropyridine-3,5-dicarboxylate] |  | 1.3 | 1.0 |  |  | hits |  | 
COC(=O)C1=C(C#N)NC(C)=C(C(=O)OC(C)C)C1c1cccc([N+](=O)[O-])c1 (centres unmarked) [Nilvadipine, 3-O-methyl 5-O-propan-2-yl 2-cyano-6-methyl-4-(3-nitrophenyl)-1,4-dihydropyridine-3,5-dicarboxylate] |  | 1.6 | 1.5 | increased activity | increased activity | hits |  | 
CCS(=O)(=O)c1ccc2oc(-c3ccc4ccccc4c3)nc2c1 [ezutromid] |  |  |  |  |  |  | did not significantly increase SSPN gene expression; also recorded: did not significantly increase sarcospan levels | did not significantly increase UTRN levels; also recorded: did not increase utrophin gene expression
CSC[C@H]1O[C@@H](n2cnc3c(N)ncnc32)[C@H](O)[C@@H]1O [methylthioadenosine, (2R,3R,4S,5S)-2-(6-aminopurin-9-yl)-5-(methylsulfanylmethyl)oxolane-3,4-diol] | among the hits |  |  | increased activity | increased activity |  |  | 
